Structures can show the parent of a compound that is named as a salt.
Legend:
ecNOS = ecNOS (Homo sapiens, UniProt P29474); assay: NOS activity: L-[3H]citrulline formation from L-[3H]arginine, ecNOS; type: biochemical; conditions: Table 2; ecNOS; 1 μM L-Arg, pH 7.5, room temperature, 30 minutes; read-out: ecNOS (IC50)
Protocol: (§1) NOS activity is measured as the formation of L-[2,3,4,5-^3 H]Citrullinefrom L-[2,3,4,5-^3 H]Arginine. The incubation buffer (100 μL) contained; 100 mM TES, pH 7.5, 5 μM FAD, 5 μM FMN, 10 μM BH4, 0.5 mM NADPH, 0.5 mM DTT, 0.5 mg/mL BSA, 2 mM CaCl2, 10 μg/mL calmodulin (bovine), 1 μM L-Arg, 0.2 μCi L-[2,3,4,5-^3 H]Arg, and the inhibitor in aqueous DMSO (max. 5%). The reaction is initiated by addition of enzyme. Incubations are performed at room temperature for 30 minutes and stopped by the addition of an equal volume of quenching buffer consisting of 200 mM sodium citrate, pH 2.2, 0.02% sodium azide. Reaction products are separated by passing through a cation exchange resin and quantitated as cpm by scintillation counting.

ncNOS = ncNOS (Homo sapiens, UniProt P29475); assay: biochemical; conditions: Table 2; ncNOS; 1 μM L-Arg, pH 7.5, room temperature, 30 minutes; read-out: ncNOS (IC50)
Chain of ncNOS (P29475 whole entry): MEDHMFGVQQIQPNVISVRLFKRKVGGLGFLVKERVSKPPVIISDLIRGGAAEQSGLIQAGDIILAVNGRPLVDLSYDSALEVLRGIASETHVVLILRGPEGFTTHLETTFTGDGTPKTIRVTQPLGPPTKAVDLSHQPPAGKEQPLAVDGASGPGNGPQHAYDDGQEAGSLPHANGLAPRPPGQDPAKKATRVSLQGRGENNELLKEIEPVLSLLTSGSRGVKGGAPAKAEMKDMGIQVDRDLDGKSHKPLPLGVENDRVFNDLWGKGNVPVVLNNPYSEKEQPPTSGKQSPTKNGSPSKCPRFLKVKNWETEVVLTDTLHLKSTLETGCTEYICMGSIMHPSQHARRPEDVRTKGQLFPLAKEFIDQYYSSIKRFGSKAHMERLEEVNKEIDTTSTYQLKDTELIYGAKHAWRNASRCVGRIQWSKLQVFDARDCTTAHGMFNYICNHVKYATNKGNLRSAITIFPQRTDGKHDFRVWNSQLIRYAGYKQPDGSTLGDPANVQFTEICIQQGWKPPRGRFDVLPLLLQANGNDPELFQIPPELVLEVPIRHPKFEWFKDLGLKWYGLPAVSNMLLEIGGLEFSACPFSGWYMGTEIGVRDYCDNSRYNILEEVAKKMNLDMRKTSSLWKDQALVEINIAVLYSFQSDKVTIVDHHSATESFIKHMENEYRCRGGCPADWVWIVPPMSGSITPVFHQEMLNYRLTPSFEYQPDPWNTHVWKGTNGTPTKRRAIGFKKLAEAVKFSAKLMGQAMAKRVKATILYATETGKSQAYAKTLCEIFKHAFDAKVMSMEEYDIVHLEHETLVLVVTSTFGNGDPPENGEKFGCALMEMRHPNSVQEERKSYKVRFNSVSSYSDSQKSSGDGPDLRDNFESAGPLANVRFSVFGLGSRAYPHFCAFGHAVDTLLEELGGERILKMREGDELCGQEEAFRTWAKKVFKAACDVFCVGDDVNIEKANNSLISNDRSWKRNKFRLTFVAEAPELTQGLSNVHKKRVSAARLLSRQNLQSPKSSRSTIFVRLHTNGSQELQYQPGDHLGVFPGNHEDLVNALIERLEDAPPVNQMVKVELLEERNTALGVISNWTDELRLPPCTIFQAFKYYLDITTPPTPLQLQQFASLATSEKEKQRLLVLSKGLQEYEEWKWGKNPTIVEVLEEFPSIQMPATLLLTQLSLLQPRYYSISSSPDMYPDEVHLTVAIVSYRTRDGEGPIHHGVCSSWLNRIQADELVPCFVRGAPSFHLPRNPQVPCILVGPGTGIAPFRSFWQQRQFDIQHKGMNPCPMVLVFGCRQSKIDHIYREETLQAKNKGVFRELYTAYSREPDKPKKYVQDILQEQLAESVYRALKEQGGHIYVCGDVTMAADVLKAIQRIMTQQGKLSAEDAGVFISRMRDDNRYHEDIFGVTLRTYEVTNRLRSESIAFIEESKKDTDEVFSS

iNOS = iNOS (Homo sapiens, UniProt P35228); assay: NOS activity: L-[3H]citrulline formation from L-[3H]arginine, iNOS; type: biochemical; conditions: Table 2; iNOS; 1 μM L-Arg, pH 7.5, room temperature, 30 minutes; read-out: iNOS (IC50)
Protocol: as §1

IC50 (ecNOS)	IC50 (ncNOS)	IC50 (iNOS)	SMILES
< 10 µM	< 50 µM	< 50 µM	Nc1ncccc1OCC[C@H](N)C(=O)O [Example 48, 2-(2-Amino-3-pyridinoxy)-ethyl-(S)-glycine dihydrochloride]
< 50 µM	< 50 µM	< 10 µM	Nc1ccnc(N)c1 [Example 38, 2,4-Diaminopyridine dihydrochloride]
< 1 µM	< 1 µM	< 1 µM	Cc1cnc(N)cc1C [Example 49, 2-Amino-4,5-dimethylpyridine hydrochloride]
> 50 µM	> 50 µM	> 50 µM	Cc1cc(N)ncc1C(=O)O [Example 43, 2-Amino-5-carboxy-4-methylpyridine]
> 50 µM	< 10 µM	< 50 µM	CCCCCc1cnc(N)cc1C [Example 33, 2-Amino-4-methyl-5-pentyl-pyridine]
< 1 µM	< 10 µM	< 10 µM	Cc1cc(N)nc(CCCC(=O)O)c1 [Example 75, 4-(6-Amino-4-methyl-2-pyridinyl)butanoic acid hydrochloride]
< 10 µM	< 1 µM	< 1 µM	Cc1cc(N)nc(CCCCN)c1 [Example 56, 2-Amino-6-(4-aminobutyl)-4-methylpyridine]
> 50 µM	> 50 µM	< 10 µM	Cc1ccnc(N)c1NC(=O)NCc1ccccc1 [Example 19, 2-Amino-3-benzylurea-4-picoline]
< 10 µM	< 1 µM	< 1 µM	Cc1cc(N)nc(CC[C@H](C)N)c1 [Example 76, (S)-2-Amino-6-(3-aminobutyl)-4-methylpyridine]
< 1 µM	< 10 µM	< 1 µM	Cc1cc(N)nc(C(C)C)c1 [Example 55, 2-Amino-4-methyl-6-(1-methylethyl)pyridine]
< 50 µM	< 50 µM	< 10 µM	C#Cc1cnc(N)cc1C [Example 32, 2-Amino-5-ethynyl-4-methyl-pyridine]
< 50 µM	< 10 µM	< 50 µM	CSc1ccnc(N)c1 [Example 35, 4-Methylthio-2-aminopyridine]
< 50 µM	< 10 µM	< 10 µM	Cc1cc(N)nc2c1CCCC2 [Example 63, 2-Amino-4-methyl-5,6,7,8-tetrahydroquinoline]
< 10 µM	< 50 µM	< 10 µM	Cc1cc(N)ncc1CN [Example 45, 2-Amino-5-aminomethyl-4-methylpyridine dihydrochloride]
